Converted amounts (≈) assume the structure as drawn. Read-outs that look alike come from different tables or passages of the source.
Key:
KM201.2 = experiment: Cytotoxicity, colon KM201.2; type: cell-based, human; settings: for GI50: Homo sapiens
DU-145 = experiment: Cytotoxicity, prostate DU-145; type: cell-based, human; settings: for GI50: Homo sapiens, DU-145, DU-145
NCI-H460 = experiment: Cytotoxicity, lung-NSC NCI-H460; type: cell-based, human; settings: for GI50: Homo sapiens
[1] = test system: P-388 and human tumor cell lines; experiment: Cytotoxicity, summary over P-388 and human tumor cell lines; type: cell-based
MCF-7 = experiment: Cytotoxicity, breast MCF-7; type: cell-based, human; settings: for GI50: Homo sapiens, MCF7
SF-268 = experiment: Cytotoxicity, CNS SF-268; type: cell-based, human; settings: for GI50: Homo sapiens
BXPC-3 = experiment: Cytotoxicity, pancreas-a BXPC-3; type: cell-based, human; settings: for GI50: Homo sapiens, BXPC-3, BXPC-3
tubulin [2] = experiment: Inhibition of tubulin polymerization; type: biochemical; settings: tubulin 10 μM; extent of assembly after 20 min at 30° C.; read-out: Inhibition of tubulin Polymerization IC50 (μM) ± SD
Protocol: (§1) Extent of assembly after 20 min at 30° C. was the parameter measured. The colchicine binding assay was performed as earlier reported.^27 The tubulin concentration was 1.0 μM, the [3H] colchicine concentration was 5.0 μM, and the potential inhibitor concentrations were as indicated. Binding of colchicine was measured following a 10 min incubation at 37° C.

tubulin [3] = experiment: Inhibition of [3H]colchicine binding to tubulin
Protocol: as §1

[4] = test system: Stenotrophomonas maltophilia; experiment: Antimicrobial broth microdilution, MIC; type: cell-based; settings: for MIC: read-out: Minimum inhibitory concentration
Text: (§2) Stilbene production has been correlated with the resistance of grape leaves to fungal infection.

Escherichla coli = experiment: Antimicrobial broth microdilution, MIC; type: cell-based; settings: Escherichla coli; for MIC: read-out: Minimum inhibitory concentration
Text: as §2

Enterobacter cloacae = experiment: Antimicrobial broth microdilution, MIC; type: cell-based; settings: for MIC: read-out: Minimum inhibitory concentration
Text: as §2

Streptococcus pneumoniae = experiment: Antimicrobial broth microdilution, MIC; type: cell-based; settings: for MIC: read-out: Minimum inhibitory concentration
Text: as §2

Micrococcus luteus = experiment: Antimicrobial broth microdilution, MIC; type: cell-based; settings: for MIC: read-out: Minimum inhibitory concentration
Text: as §2

Candida albicans = experiment: Antimicrobial broth microdilution, MIC; type: cell-based; settings: for MIC: read-out: Minimum inhibitory concentration
Text: as §2

Staphylococcus aureus = experiment: Antimicrobial broth microdilution, MIC; type: cell-based; settings: for MIC: read-out: Minimum inhibitory concentration
Text: as §2

Enterococcus faecalis = experiment: Antimicrobial broth microdilution, MIC; type: cell-based; settings: for MIC: read-out: Minimum inhibitory concentration
Text: as §2

Neisseria gonorrhoeae = experiment: Antimicrobial broth microdilution, MIC; type: cell-based; settings: Neisseria gonorrhoeae; for MIC: read-out: Minimum inhibitory concentration
Text: as §2

Cryptococcus neoformans = experiment: Antimicrobial broth microdilution, MIC; type: cell-based; settings: for MIC: read-out: Minimum inhibitory concentration
Text: as §2

[5] = KM201.2, read-out: Colon KM201.2 GI50
[6] = NCI-H460, NCI-H460, read-out: Lung-NSC NCI-H460 GI50
[7] = SF-268, SF-268, read-out: CNS SF-268 GI50
[8] = NCI-H460, read-out: Lung-NSC NCI-H460 GI50, NCI-H460

Compound	GI50 (KM201.2; [5])	GI50 (DU-145)	GI50 (NCI-H460; [6])	Cytotoxicity against cancer cell lines, comparison in words [1]	GI50 (MCF-7)	GI50 (SF-268; [7])	GI50 (BXPC-3)	Prostate DU-145 GI50 (DU-145)	CNS SF-268 GI50 (SF-268)	Pancreas-a BXPC-3 GI50 (BXPC-3)	MIC [4]	MIC (Escherichla coli)	MIC (Enterobacter cloacae)	MIC (Streptococcus pneumoniae)	MIC (Micrococcus luteus)	MIC (Candida albicans)	MIC (Staphylococcus aureus)	MIC (Enterococcus faecalis; first line (r12))	MIC (Enterococcus faecalis; second line (r15))	other results
Oc1ccc(/C=C\c2cc(O)cc(O)c2)cc1 [Compound 1b, cis-Resveratrol]	22 µg/mL (≈ 96.4 µM)	10.2 µg/mL (≈ 44.7 µM)	13.2 µg/mL (≈ 57.8 µM)	slightly less inhibitory effects on the cancer cell lines tested than did the trans-isomer	14.8 µg/mL (≈ 64.8 µM)	5 µg/mL (≈ 21.9 µM)	15.5 µg/mL (≈ 67.9 µM)													
COc1ccc(C(=O)c2cc(OC)c(OC)c(OC)c2)cc1O [Compound 2c, phenstatin, reference compound]																				GI50 (KM201.2; read-out: Colon KM201.2 GI50, KM201.2): 0.04 µg/mL (≈ 0.126 µM); IC50 (tubulin [2]): 1.1 ± 0.1 µM; GI50 (NCI-H460; [8]): 0.0057 µg/mL (≈ 0.0179 µM); Inhibition of colchicine binding, in words (tubulin [3]): less potent than combretastatin A-4 (2a); Inhibition of colchicine binding % Inhibition, 2 μM inhibitor (tubulin [3]; 2 μM inhibitor, tubulin 1.0 μM, [3H]colchicine 5.0 μM, 10 min at 37° C.): 73 ± 1%; Inhibition of colchicine binding % Inhibition, 5 μM inhibitor (tubulin [3]; 5 μM inhibitor, tubulin 1.0 μM, [3H]colchicine 5.0 μM, 10 min at 37° C.): 85 ± 2%; GI50 (SF-268; SF-268, read-out: CNS SF-268 GI50, SF-268): 0.052 µg/mL (≈ 0.163 µM)
COc1ccc(C=Cc2cc(OC)cc(OC)c2)cc1 [Compound 4b, 3,4′,5-trimethoxystilbene]				superior in activity to resveratrol (1)				1.5 µg/mL	0.56 µg/mL	0.35 µg/mL										Lung-NSC NCI-H460 GI50 (NCI-H460): 0.62 µg/mL
COc1cc(/C=C/c2ccc(O)cc2)cc(OC)c1 [Compound 14d, (E)-3,5-dimethoxy-4′-hydroxy-stilbene]	3.4 µg/mL (≈ 13.3 µM)	2.7 µg/mL (≈ 10.5 µM)	2.7 µg/mL (≈ 10.5 µM)	slightly less active than their cis counterparts	2.3 µg/mL (≈ 8.97 µM)	4.3 µg/mL (≈ 16.8 µM)	6.5 µg/mL (≈ 25.4 µM)													
COc1ccc(C=Cc2cc(O)cc(OC)c2)cc1 [Compound 14g, 3-hydroxy-4′,5-dimethoxystilbene]				comparable to that of resveratrol																
COc1ccc(C=Cc2cc(O)cc(OC)c2)cc1 [Compound 14h, 3-hydroxy-4′,5-dimethoxystilbene]				slightly less active than their cis counterparts							> 64 µg/mL	> 64 µg/mL	> 64 µg/mL	> 64 µg/mL	16 to 64 µg/mL (≈ 62.4 to 250 µM)	> 64 µg/mL	> 64 µg/mL	> 64 µg/mL	> 64 µg/mL	
COc1ccc(C=Cc2cc(O)cc(O)c2)cc1 [Compound 14k, 3,5-dihydroxy-4′-methoxy-stilbene]				comparable to that of resveratrol				10.6 µg/mL	15.6 µg/mL	14.1 µg/mL	> 64 µg/mL	> 64 µg/mL	> 64 µg/mL	> 64 µg/mL	> 64 µg/mL	> 64 µg/mL	> 64 µg/mL	> 64 µg/mL	> 64 µg/mL	Colon KM201.2 GI50 (KM201.2; KM201.2): 17.7 µg/mL; GI50 (NCI-H460; [8]): 6.4 µg/mL (≈ 26.4 µM); MIC (Neisseria gonorrhoeae): 16 µg/mL (≈ 66 µM); MIC (Cryptococcus neoformans): > 64 µg/mL; Breast MCF-7 GI50 (MCF-7): 12.7 µg/mL
COc1ccc(C=Cc2cc(O)cc(O)c2)cc1 [Compound 14l, 3,5-dihydroxy-4′-methoxy-stilbene]				slightly less active than their cis counterparts				2.7 µg/mL	3.1 µg/mL	6.3 µg/mL										Colon KM201.2 GI50 (KM201.2; KM201.2): 3.8 µg/mL; Lung-NSC NCI-H460 GI50 (NCI-H460): 6.8 µg/mL; Breast MCF-7 GI50 (MCF-7): 3.4 µg/mL
COc1cc(/C=C\c2ccccc2)cc(OC)c1OP(=O)(OCc1ccccc1)OCc1ccccc1 [Compound 14m, (Z)-3,5-dimethoxy-4-[O-bis(benzyl)phosphoryl]-stilbene]								35.6 µg/mL	38.5 µg/mL	5.4 µg/mL										Colon KM201.2 GI50 (KM201.2; KM201.2): 24.7 µg/mL; Lung-NSC NCI-H460 GI50 (NCI-H460): 10.7 µg/mL; Breast MCF-7 GI50 (MCF-7): 9.0 µg/mL
COc1ccc(C(O)c2cc(OC)cc(OC)c2)cc1 (stereo not drawn) [Compound 15a]								23.2 µg/mL	23.3 µg/mL	16.1 µg/mL										Colon KM201.2 GI50 (KM201.2; KM201.2): 21.0 µg/mL; Lung-NSC NCI-H460 GI50 (NCI-H460): 21.7 µg/mL
COc1cc(OC)cc(C(O)c2ccc(O)cc2)c1 (stereo not drawn) [Compound 15c, 4′-Hydroxy-3,5-dimethoxybenzhydrol]	5.3 µg/mL (≈ 20.4 µM)	5.8 µg/mL (≈ 22.3 µM)	2.3 µg/mL (≈ 8.84 µM)		2 µg/mL (≈ 7.68 µM)	0.65 µg/mL (≈ 2.5 µM)	1.3 µg/mL (≈ 4.99 µM)				> 64 µg/mL	> 64 µg/mL	> 64 µg/mL	16 µg/mL (≈ 61.5 µM)	> 64 µg/mL	> 64 µg/mL	> 64 µg/mL	> 64 µg/mL	> 64 µg/mL	MIC (Neisseria gonorrhoeae): 2 to 4 µg/mL (≈ 7.68 to 15.4 µM); MIC (Cryptococcus neoformans): > 64 µg/mL
COc1cc(OC)cc(C(=O)c2ccc(O)cc2)c1 [Compound 16c]								4.1 µg/mL	3.8 µg/mL	4.0 µg/mL										Colon KM201.2 GI50 (KM201.2; KM201.2): 3.6 µg/mL; Lung-NSC NCI-H460 GI50 (NCI-H460): 3.0 µg/mL; Minimum inhibitory concentration [4]: * (no inhibition at 64 μg/ml); Minimum inhibitory concentration (Escherichla coli): * (no inhibition at 64 μg/ml); Minimum inhibitory concentration (Enterobacter cloacae): * (no inhibition at 64 μg/ml); Minimum inhibitory concentration (Streptococcus pneumoniae): 64 µg/mL (≈ 248 µM); Minimum inhibitory concentration (Micrococcus luteus): * (no inhibition at 64 μg/ml); Minimum inhibitory concentration (Candida albicans): * (no inhibition at 64 μg/ml); Minimum inhibitory concentration (Staphylococcus aureus): * (no inhibition at 64 μg/ml); Minimum inhibitory concentration (Neisseria gonorrhoeae): 32 to 64 µg/mL; Minimum inhibitory concentration (Enterococcus faecalis; first line (r12)): * (no inhibition at 64 μg/ml); Minimum inhibitory concentration (Enterococcus faecalis; second line (r15)): * (no inhibition at 64 μg/ml); Minimum inhibitory concentration (Cryptococcus neoformans): * (no inhibition at 64 μg/ml); Breast MCF-7 GI50 (MCF-7): 2.2 µg/mL
COc1ccc(C(=O)c2cc(O)cc(O)c2)cc1 [Compound 16e]																				Minimum inhibitory concentration [4]: * (no inhibition at 64 μg/ml); Minimum inhibitory concentration (Escherichla coli): * (no inhibition at 64 μg/ml); Minimum inhibitory concentration (Enterobacter cloacae): * (no inhibition at 64 μg/ml); Minimum inhibitory concentration (Streptococcus pneumoniae): * (no inhibition at 64 μg/ml); Minimum inhibitory concentration (Micrococcus luteus): * (no inhibition at 64 μg/ml); Minimum inhibitory concentration (Candida albicans): * (no inhibition at 64 μg/ml); Minimum inhibitory concentration (Staphylococcus aureus): * (no inhibition at 64 μg/ml); Minimum inhibitory concentration (Neisseria gonorrhoeae): * (no inhibition at 64 μg/ml); Minimum inhibitory concentration (Enterococcus faecalis; first line (r12)): * (no inhibition at 64 μg/ml); Minimum inhibitory concentration (Enterococcus faecalis; second line (r15)): * (no inhibition at 64 μg/ml); Minimum inhibitory concentration (Cryptococcus neoformans): * (no inhibition at 64 μg/ml)
O=C(c1ccc(O)cc1)c1cc(O)cc(O)c1 [Compound 16g, 3,4′,5-trihydroxybenzophenone]	24.5 µg/mL (≈ 106 µM)	15 µg/mL (≈ 65.2 µM)	25 µg/mL (≈ 109 µM)		30.6 µg/mL (≈ 133 µM)	22.3 µg/mL (≈ 96.9 µM)	20.5 µg/mL (≈ 89 µM)				> 64 µg/mL	> 64 µg/mL	> 64 µg/mL	64 µg/mL (≈ 278 µM)	> 64 µg/mL	> 64 µg/mL	> 64 µg/mL	> 64 µg/mL	> 64 µg/mL	MIC (Neisseria gonorrhoeae): > 64 µg/mL; MIC (Cryptococcus neoformans): > 64 µg/mL
COc1cc(O)cc(C(=O)c2ccc(O)cc2)c1 [Compound 16i, 3,4′-dihydroxy-5-methoxybenzophenone]	31.6 µg/mL (≈ 129 µM)	16.5 µg/mL (≈ 67.6 µM)	12.1 µg/mL (≈ 49.5 µM)		26.8 µg/mL (≈ 110 µM)	26.4 µg/mL (≈ 108 µM)	21.7 µg/mL (≈ 88.8 µM)				> 64 µg/mL	> 64 µg/mL	> 64 µg/mL	64 µg/mL (≈ 262 µM)	> 64 µg/mL	> 64 µg/mL	> 64 µg/mL	> 64 µg/mL	> 64 µg/mL	MIC (Neisseria gonorrhoeae): 32 µg/mL (≈ 131 µM); MIC (Cryptococcus neoformans): > 64 µg/mL
COc1ccc(C(=O)c2cc(O)cc(OC)c2)cc1 [Compound 16k, 4′,5-dimethoxy-3-hydroxybenzophenone]	16.2 µg/mL (≈ 62.7 µM)	12.6 µg/mL (≈ 48.8 µM)	10.3 µg/mL (≈ 39.9 µM)		14.2 µg/mL (≈ 55 µM)	13.9 µg/mL (≈ 53.8 µM)	15 µg/mL (≈ 58.1 µM)				> 64 µg/mL	> 64 µg/mL	> 64 µg/mL	32 to 64 µg/mL (≈ 124 to 248 µM)	> 64 µg/mL	> 64 µg/mL	> 64 µg/mL	> 64 µg/mL	> 64 µg/mL	MIC (Neisseria gonorrhoeae): 16 to 32 µg/mL (≈ 61.9 to 124 µM); MIC (Cryptococcus neoformans): 64 µg/mL (≈ 248 µM)
Sodium Resverastatin Phosphate [Compound 14n]				essentially identical to 14c																Breast MCF-7 GI50 (MCF-7): 0.73 µg/mL
